# In patent publication US12258327B2, “5-membered heteroaryl-containing aminopyridine compounds as EGFR inhibitors” (YUHAN CORPORATION, priority 2021, dated 2025):
# Read-outs that look alike come from different tables or passages of the source.
# Legend:
# EGFR wildtype (WT) = EGFR wildtype (WT) (Homo sapiens, UniProt P00533); assay: Biochemical EGFR kinase assay (Lance Ultra TR-FRET), wildtype
# Outline: (§1)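 Step 1: compound in kinase buffer, 0.003–10 μM. Step 2: kinase reaction 1 h at room temperature. Step 4: TR-FRET read at 615/665 nm; IC50 calculated.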
# EGFR del19/C797S = EGFR del19/C797S (Homo sapiens, UniProt P00533, C797S/DEL746-750); assay: Biochemical EGFR kinase assay (Lance Ultra TR-FRET), double mutant del19/C797S
# Outline: as §1
# EGFR L858R/T790M/C797S = EGFR L858R/T790M/C797S (Homo sapiens, UniProt P00533, C797S/L858R/T790M); assay: Biochemical EGFR kinase assay (Lance Ultra TR-FRET), triple mutant L858R/T790M/C797S
# Outline: as §1
# EGFR del19/T790M/C797S = EGFR del19/T790M/C797S (Homo sapiens, UniProt P00533, C797S/DEL746-750/T790M); assay: Biochemical EGFR kinase assay (Lance Ultra TR-FRET), triple mutant del19/T790M/C797S
# Outline: as §1
# EGFR L858R/C797S = EGFR L858R/C797S (Homo sapiens, UniProt P00533, C797S/L858R); assay: Biochemical EGFR kinase assay (Lance Ultra TR-FRET), double mutant L858R/C797S
# Outline: as §1
# [1] = IC50 WT (nM) 100 μM ATP, 100 μM ATP
# [2] = Km ATP, read-out: IC50 WT (nM) Km ATP
# [3] = IC50 del19/C797S (nM) 100 μM ATP, 100 μM ATP
# [4] = Km ATP, read-out: IC50 del19/C797S (nM) Km ATP
# [5] = IC50 L858R/T790M/C797S (nM) 100 μM ATP, 100 μM ATP
# [6] = Km ATP, read-out: IC50 L858R/T790M/C797S (nM) Km ATP
# [7] = IC50 del19/T790M/C797S (nM) 100 μM ATP, 100 μM ATP
# [8] = Km ATP, read-out: IC50 del19/T790M/C797S (nM) Km ATP
# [9] = IC50 L858R/C797S (nM) 100 μM ATP, 100 μM ATP
# [10] = Km ATP, read-out: IC50 L858R/C797S (nM) Km ATP
# Sequence of EGFR L858R/T790M/C797S (P00533 25-1210 T790M/C797S/L858R): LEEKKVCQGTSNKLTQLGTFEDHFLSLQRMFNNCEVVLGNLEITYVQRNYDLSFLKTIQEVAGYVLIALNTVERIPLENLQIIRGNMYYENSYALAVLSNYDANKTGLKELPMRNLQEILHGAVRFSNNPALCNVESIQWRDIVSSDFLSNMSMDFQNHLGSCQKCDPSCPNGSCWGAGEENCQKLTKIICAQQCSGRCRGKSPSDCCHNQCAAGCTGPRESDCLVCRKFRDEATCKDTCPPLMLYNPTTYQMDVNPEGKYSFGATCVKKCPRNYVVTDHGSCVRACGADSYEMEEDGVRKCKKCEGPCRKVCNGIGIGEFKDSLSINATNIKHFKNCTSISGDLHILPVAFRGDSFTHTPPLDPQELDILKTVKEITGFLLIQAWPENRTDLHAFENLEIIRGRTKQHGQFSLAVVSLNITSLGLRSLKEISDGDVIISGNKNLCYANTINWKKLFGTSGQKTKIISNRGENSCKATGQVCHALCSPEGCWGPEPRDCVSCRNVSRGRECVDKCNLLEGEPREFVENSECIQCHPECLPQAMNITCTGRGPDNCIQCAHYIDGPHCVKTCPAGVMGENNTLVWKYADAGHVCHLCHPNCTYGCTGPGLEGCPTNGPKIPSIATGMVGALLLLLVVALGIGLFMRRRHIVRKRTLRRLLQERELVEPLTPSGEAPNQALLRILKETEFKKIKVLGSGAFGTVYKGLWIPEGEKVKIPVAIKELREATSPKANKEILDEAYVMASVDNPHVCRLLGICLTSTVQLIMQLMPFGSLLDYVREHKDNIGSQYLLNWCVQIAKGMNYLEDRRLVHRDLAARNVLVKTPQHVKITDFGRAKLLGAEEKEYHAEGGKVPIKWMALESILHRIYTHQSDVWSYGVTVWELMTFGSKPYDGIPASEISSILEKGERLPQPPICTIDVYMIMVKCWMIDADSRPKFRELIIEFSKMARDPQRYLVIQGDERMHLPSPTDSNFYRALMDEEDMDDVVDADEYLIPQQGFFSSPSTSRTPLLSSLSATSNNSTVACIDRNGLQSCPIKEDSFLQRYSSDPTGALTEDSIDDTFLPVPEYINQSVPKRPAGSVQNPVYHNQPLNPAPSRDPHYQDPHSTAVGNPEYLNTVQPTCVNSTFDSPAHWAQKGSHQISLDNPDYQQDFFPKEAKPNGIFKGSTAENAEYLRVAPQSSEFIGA
# Sequence of EGFR del19/C797S (P00533 with tags, fused parts or gaps DEL746-750/C797S): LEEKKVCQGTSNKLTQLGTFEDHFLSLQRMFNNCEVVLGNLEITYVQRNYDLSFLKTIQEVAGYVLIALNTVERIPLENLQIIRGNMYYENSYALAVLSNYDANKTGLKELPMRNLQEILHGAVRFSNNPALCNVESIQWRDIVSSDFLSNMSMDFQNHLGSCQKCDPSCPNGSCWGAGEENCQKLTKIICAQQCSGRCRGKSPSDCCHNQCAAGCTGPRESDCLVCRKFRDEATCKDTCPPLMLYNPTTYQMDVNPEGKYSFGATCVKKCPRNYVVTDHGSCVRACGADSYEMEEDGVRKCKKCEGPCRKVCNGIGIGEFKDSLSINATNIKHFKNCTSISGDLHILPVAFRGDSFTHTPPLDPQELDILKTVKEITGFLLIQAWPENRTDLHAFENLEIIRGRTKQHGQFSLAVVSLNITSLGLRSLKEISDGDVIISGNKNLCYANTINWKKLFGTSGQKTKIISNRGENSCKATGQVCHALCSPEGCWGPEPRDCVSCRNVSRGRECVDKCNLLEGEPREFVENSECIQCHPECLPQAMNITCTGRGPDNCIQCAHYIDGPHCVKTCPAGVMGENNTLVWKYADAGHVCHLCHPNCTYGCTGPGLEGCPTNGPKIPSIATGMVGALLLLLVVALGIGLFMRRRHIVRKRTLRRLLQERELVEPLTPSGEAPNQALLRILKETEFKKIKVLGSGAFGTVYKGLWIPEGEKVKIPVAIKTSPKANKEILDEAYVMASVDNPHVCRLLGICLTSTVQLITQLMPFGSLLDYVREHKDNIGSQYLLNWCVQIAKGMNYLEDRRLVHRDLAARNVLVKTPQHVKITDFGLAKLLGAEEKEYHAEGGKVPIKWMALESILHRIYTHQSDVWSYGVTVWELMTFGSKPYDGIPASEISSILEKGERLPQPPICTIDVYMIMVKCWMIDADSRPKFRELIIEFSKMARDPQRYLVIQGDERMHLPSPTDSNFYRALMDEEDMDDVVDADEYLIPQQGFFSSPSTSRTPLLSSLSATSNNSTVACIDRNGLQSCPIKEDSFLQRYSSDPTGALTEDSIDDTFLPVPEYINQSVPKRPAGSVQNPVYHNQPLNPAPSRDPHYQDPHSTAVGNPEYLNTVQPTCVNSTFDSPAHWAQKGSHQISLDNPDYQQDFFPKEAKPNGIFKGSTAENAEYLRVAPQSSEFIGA
# Sequence of EGFR wildtype (WT) (P00533 25-1210): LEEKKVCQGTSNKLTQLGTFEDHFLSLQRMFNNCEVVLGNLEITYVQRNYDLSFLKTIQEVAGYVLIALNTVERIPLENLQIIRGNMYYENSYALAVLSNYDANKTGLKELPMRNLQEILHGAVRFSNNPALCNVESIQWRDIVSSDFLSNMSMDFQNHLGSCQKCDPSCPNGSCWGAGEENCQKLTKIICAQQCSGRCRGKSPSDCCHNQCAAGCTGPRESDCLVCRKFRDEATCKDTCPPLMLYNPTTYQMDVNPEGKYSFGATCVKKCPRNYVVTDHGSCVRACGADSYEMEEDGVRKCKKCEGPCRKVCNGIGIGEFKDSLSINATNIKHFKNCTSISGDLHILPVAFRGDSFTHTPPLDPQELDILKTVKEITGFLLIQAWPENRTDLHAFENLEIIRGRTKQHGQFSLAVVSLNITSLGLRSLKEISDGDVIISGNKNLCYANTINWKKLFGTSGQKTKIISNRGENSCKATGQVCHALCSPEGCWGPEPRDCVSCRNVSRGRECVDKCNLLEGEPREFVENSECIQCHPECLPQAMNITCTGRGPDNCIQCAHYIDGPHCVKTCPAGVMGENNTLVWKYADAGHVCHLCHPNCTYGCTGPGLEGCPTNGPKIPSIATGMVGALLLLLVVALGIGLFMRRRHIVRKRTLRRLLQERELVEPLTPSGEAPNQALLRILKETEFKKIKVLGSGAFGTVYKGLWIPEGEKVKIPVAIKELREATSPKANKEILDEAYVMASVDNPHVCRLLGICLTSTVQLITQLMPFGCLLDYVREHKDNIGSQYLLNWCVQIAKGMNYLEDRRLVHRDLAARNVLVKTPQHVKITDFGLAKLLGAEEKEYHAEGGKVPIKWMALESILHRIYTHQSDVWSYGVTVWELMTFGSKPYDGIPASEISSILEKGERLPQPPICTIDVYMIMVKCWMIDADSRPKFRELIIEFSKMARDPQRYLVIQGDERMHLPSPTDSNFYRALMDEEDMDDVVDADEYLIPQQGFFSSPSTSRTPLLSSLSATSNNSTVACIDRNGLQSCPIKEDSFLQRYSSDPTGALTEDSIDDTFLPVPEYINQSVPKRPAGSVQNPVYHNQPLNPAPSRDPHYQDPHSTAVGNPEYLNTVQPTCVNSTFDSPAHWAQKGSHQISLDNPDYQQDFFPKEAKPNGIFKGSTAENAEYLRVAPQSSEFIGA
# Sequence of EGFR L858R/C797S (P00533 25-1210 C797S/L858R): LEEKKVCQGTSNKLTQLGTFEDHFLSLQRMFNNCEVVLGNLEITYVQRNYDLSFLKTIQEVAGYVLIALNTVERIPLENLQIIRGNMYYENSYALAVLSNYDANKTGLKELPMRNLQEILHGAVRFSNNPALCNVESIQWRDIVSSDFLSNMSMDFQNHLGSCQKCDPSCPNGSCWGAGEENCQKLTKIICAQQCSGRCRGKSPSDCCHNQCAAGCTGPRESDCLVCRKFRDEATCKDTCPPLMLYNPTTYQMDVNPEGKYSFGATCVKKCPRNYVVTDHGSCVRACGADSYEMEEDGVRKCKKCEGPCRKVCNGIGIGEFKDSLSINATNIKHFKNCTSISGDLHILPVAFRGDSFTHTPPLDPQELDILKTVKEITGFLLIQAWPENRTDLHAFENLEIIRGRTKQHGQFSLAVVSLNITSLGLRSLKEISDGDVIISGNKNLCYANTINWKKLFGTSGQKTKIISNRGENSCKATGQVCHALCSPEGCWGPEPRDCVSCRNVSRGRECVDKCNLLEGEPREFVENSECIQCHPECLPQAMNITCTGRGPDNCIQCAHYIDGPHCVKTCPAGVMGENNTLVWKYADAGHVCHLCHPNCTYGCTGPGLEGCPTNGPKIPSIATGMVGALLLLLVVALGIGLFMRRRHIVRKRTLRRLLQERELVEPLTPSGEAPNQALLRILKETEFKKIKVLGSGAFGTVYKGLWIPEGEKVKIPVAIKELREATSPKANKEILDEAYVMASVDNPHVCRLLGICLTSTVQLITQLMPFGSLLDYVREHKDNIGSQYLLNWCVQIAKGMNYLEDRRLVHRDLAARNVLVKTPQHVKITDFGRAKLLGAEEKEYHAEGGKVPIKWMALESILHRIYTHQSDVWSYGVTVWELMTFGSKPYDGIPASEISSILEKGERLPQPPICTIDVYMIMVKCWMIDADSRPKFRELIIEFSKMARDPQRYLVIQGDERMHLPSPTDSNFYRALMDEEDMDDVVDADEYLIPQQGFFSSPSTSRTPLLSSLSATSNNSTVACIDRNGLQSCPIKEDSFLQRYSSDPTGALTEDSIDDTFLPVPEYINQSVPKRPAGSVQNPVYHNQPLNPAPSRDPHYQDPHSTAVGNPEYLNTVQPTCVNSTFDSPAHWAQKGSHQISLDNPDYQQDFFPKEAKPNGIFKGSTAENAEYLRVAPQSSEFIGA
IC50 (EGFR wildtype (WT); [1]) [nM],IC50 (EGFR wildtype (WT); [2]) [nM],IC50 (EGFR del19/C797S; [3]) [nM],IC50 (EGFR del19/C797S; [4]) [nM],IC50 (EGFR L858R/T790M/C797S; [5]) [nM],IC50 (EGFR L858R/T790M/C797S; [6]) [nM],IC50 (EGFR del19/T790M/C797S; [7]) [nM],IC50 (EGFR del19/T790M/C797S; [8]) [nM],IC50 (EGFR L858R/C797S; [9]) [nM],IC50 (EGFR L858R/C797S; [10]) [nM],SMILES
616,1.6,1.1,2.5,0.2,0.1,0.2,0.2,7,0.3,"CN(CC(F)F)C(=O)[C@H]1CC[C@@H](Nc2cc(Nc3ccnc(-c4cnn(S(=O)(=O)C5CC5)c4)n3)ncc2-c2ccn(C)n2)CC1 [Example 235, (1s,4s)-4-((2-((2-(1-(Cyclopropylsulfonyl)-1H-pyrazol-4-yl)pyrimidin-4-yl)amino)-5-(1-methyl-1H-pyrazol-3-yl)pyridin-4-yl)amino)-N-(2,2-difluoroethyl)-N-methylcyclohexane-1-carboxamide]"
565,0.5,0.3,0.2,0.3,0.2,0.3,0.3,2,0.1,"CN(C)C(=O)C[C@H]1CC[C@@H](Nc2cc(Nc3ccnc(-c4cnn(S(=O)(=O)C5CC5)c4)n3)ncc2-c2ccn(C)n2)CC1 [Example 236, 2-((1s,4s)-4-((2-((2-(1-(Cyclopropylsulfonyl)-1H-pyrazol-4-yl)pyrimidin-4-yl)amino)-5-(1-methyl-1H-pyrazol-3-yl)pyridin-4-yl)amino)cyclohexyl)-N,N-dimethylacetamide]"
2800,15.5,6.7,17.5,5.4,3,7.4,12.1,61.4,6.5,"CN(CC(F)F)C[C@H]1CC[C@@H](Nc2cc(Nc3ccnc(-c4cnn(S(=O)(=O)C5CC5)c4)n3)ncc2-c2ccn(C)n2)CC1 [Example 237, N^2-(2-(1-(Cyclopropylsulfonyl)-1H-pyrazol-4-yl)pyrimidin-4-yl)-N^4-((1s,4s)-4-(((2,2-difluoroethyl)(methyl)amino)methyl)cyclohexyl)-5-(1-methyl-1H-pyrazol-3-yl)pyridine-2,4-diamine]"
3600,7.5,4.9,2,0.6,0.4,0.6,0.8,178,7.1,"CN(C)CC1(C)CCC(Nc2cc(Nc3ccnc(-c4cnn(S(=O)(=O)C5CC5)c4)n3)ncc2-c2ccn(C)n2)CC1 (stereo not shown) [Example 238, N^2-(2-(1-(Cyclopropylsulfonyl)-1H-pyrazol-4-yl)pyrimidin-4-yl)-N^4-(4-((dimethylamino)methyl)-4-methylcyclohexyl)-5-(1-methyl-1H-pyrazol-3-yl)pyridine-2,4-diamine]"
,10.1,,4.6,,0.1,,0.3,,3.6,"CN(C)C[C@H]1C[C@H](CNc2cc(Nc3ccnc(-c4cnn(S(=O)(=O)C5CC5)c4)n3)ncc2-c2ccn(C)n2)C1 [Example 239, N^2-(2-(1-(Cyclopropylsulfonyl)-1H-pyrazol-4-yl)pyrimidin-4-yl)-N^4-(((1r,3r)-3-((dimethylamino)methyl)cyclobutyl)methyl)-5-(1-methyl-1H-pyrazol-3-yl)pyridine-2,4-diamine]"
,0.2,,0.2,,0.1,,0.4,,0.04,"CN(C)CC[C@H]1CC[C@@H](Nc2cc(Nc3ccnc(-c4cnn(S(=O)(=O)C5CC5)c4)n3)ncc2-c2ccn(C)n2)CC1 [Example 240, N^2-(2-(1-(Cyclopropylsulfonyl)-1H-pyrazol-4-yl)pyrimidin-4-yl)-N^4-((1s,4s)-4-(2-(dimethylamino)ethyl)cyclohexyl)-5-(1-methyl-1H-pyrazol-3-yl)pyridine-2,4-diamine]"
2980,5,0.5,0.5,0.7,0.3,0.6,0.5,,0.5,"C[C@]1(O)CC[C@@H](Nc2cc(Nc3ccnc(-c4cnn(S(=O)(=O)C5CC5)c4)n3)ncc2-c2ccn(CC(F)F)n2)CC1 [Example 241, (1s,4s)-4-((2-((2-(1-(Cyclopropylsulfonyl)-1H-pyrazol-4-yl)pyrimidin-4-yl)amino)-5-(1-(2,2-difluoroethyl)-1H-pyrazol-3-yl)pyridin-4-yl)amino)-1-methylcyclohexan-1-ol]"
6320,6,0.8,0.4,0.2,0.1,0.2,0.1,20.9,1.2,"O=S(=O)(C1CC1)n1cc(-c2nccc(Nc3cc(N[C@H]4CC[C@@H](NCCF)CC4)c(-c4ccn(CC(F)F)n4)cn3)n2)cn1 [Example 242, N^2-(2-(1-(Cyclopropylsulfonyl)-1H-pyrazol-4-yl)pyrimidin-4-yl)-5-(1-(2,2-difluoroethyl)-1H-pyrazol-3-yl)-N^4-((1s,4s)-4-((2-fluoroethyl)amino)cyclohexyl)pyridine-2,4-diamine]"
4010,8.4,2,1.7,1,0.2,2.7,,10,4.5,"CC(C)(O)[C@H]1CC[C@@H](Nc2cc(Nc3ccnc(-c4cnn(S(=O)(=O)C5CC5)c4)n3)ncc2-c2ccn(CC(F)F)n2)CC1 [Example 243, 2-((1s,4s)-4-((2-((2-(1-(Cyclopropylsulfonyl)-1H-pyrazol-4-yl)pyrimidin-4-yl)amino)-5-(1-(2,2-difluoroethyl)-1H-pyrazol-3-yl)pyridin-4-yl)amino)cyclohexyl)propan-2-ol]"
975,2.3,0.5,0.6,0.4,0.1,0.2,0.3,1.9,0.5,"O=S(=O)(C1CC1)n1cc(-c2nccc(Nc3cc(N[C@H]4CC[C@@H](CO)CC4)c(-c4ccn(CC(F)F)n4)cn3)n2)cn1 [Example 244, ((1s,4s)-4-((2-((2-(1-(Cyclopropylsulfonyl)-1H-pyrazol-4-yl)pyrimidin-4-yl)amino)-5-(1-(2,2-difluoroethyl)-1H-pyrazol-3-yl)pyridin-4-yl)amino)cyclohexyl)methanol]"
> 10000,,27.8,,12.8,,13.1,,259,,"CN(CC(F)F)C[C@H]1CC[C@@H](Nc2cc(Nc3ccnc(-c4cnn(S(=O)(=O)C5CC5)c4)n3)ncc2-c2ccn(CC(F)F)n2)CC1 [Example 245, N^2-(2-(1-(Cyclopropylsulfonyl)-1H-pyrazol-4-yl)pyrimidin-4-yl)-N^4-((1s,4s)-4-(((2,2-difluoroethyl)(methyl)amino)methyl)cyclohexyl)-5-(1-(2,2-difluoroethyl)-1H-pyrazol-3-yl)pyridine-2,4-diamine]"
4510,15.4,10.2,7.1,1.1,0.3,0.9,1,400,19.9,"CN(C)CC1(C)CCC(Nc2cc(Nc3ccnc(-c4cnn(S(=O)(=O)C5CC5)c4)n3)ncc2-c2ccn(CC(F)F)n2)CC1 (stereo not shown) [Example 246, N^2-(2-(1-(Cyclopropylsulfonyl)-1H-pyrazol-4-yl)pyrimidin-4-yl)-5-(1-(2,2-difluoroethyl)-1H-pyrazol-3-yl)-N^4-(4-((dimethylamino)methyl)-4-methylcyclohexyl)pyridine-2,4-diamine]"
150,0.7,0.3,0.2,0.1,0.1,0.2,0.3,0.7,0.2,"O=S(=O)(C1CC1)n1cc(-c2nccc(Nc3cc(N[C@H]4CC[C@@H](CN5CCC5)CC4)c(-c4ccn(CC(F)F)n4)cn3)n2)cn1 [Example 247, N^4-((1s,4s)-4-(Azetidin-1-ylmethyl)cyclohexyl)-N^2-(2-(1-(cyclopropylsulfonyl)-1H-pyrazol-4-yl)pyrimidin-4-yl)-5-(1-(2,2-difluoroethyl)-1H-pyrazol-3-yl)pyridine-2,4-diamine]"
,286,,14.7,,0.3,,0.5,,4.8,"CC(C)Nc1cc(Nc2ccnc(-c3cnn(S(=O)(=O)C4CC4)c3)n2)ncc1-c1ccn(CC(F)F)n1 [Example 248, N^2-(2-(1-(Cyclopropylsulfonyl)-1H-pyrazol-4-yl)pyrimidin-4-yl)-5-(1-(2,2-difluoroethyl)-1H-pyrazol-3-yl)-N^4-isopropylpyridine-2,4-diamine]"
